24 compounds from patent US11274098B2, “Tricyclic compounds for use in treatment of proliferative disorders” (ARGONAUT THERAPEUTICS LIMITED, priority 2017, dated 2022) can be followed below.

For the experiment, the target named is human PRMT5/MEP50 (Homo sapiens (Human), UniProt O14744). Put plainly: PRMT5 chemiluminescent assay. Format: biochemical. The conditions noted are these: human PRMT5/MEP50 expressed in HEK293 cells; biotinylated histone peptide substrate; 60 min reaction; chemiluminescent readout. As to the method: A PRMT5 chemiluminescent assay was used to measure the […] activity of PRMT5. Biotinylated histone peptides were synthesized and attached to 384-well plates. Compound serial dilutions were performed and added to the assay plate. Histone H4 monomethyl R^3 antibody was obtained from Abcam. A master mix for each well was prepared and human PRMT5/MEP50 (expressed in HEK293 cells) diluted in assay buffer to a concentration of 5 ng/μL. The reaction was incubated and slowly rotated for 60 minutes at the point of PRMT5/MEP50 addition. The supernatant from the wells was removed and blocking buffer was added to each well and rotated for 10 minutes. The primary antibody was diluted and added to every well for 60 minutes, before it was removed and the wells washed. The horse radish peroxidase (HRP)-coupled secondary antibody was diluted and added to each well with an incubation time of 30 minutes. The HRP chemiluminescent substrate was added to every well. The plate was read on a Flourstar Omega BMG Labtech instrument (Ortenberg, Germany) and the analysis of IC50 was performed using the Flourstar Omega BMG Labtech software.
Chain of human PRMT5/MEP50 (O14744 whole entry): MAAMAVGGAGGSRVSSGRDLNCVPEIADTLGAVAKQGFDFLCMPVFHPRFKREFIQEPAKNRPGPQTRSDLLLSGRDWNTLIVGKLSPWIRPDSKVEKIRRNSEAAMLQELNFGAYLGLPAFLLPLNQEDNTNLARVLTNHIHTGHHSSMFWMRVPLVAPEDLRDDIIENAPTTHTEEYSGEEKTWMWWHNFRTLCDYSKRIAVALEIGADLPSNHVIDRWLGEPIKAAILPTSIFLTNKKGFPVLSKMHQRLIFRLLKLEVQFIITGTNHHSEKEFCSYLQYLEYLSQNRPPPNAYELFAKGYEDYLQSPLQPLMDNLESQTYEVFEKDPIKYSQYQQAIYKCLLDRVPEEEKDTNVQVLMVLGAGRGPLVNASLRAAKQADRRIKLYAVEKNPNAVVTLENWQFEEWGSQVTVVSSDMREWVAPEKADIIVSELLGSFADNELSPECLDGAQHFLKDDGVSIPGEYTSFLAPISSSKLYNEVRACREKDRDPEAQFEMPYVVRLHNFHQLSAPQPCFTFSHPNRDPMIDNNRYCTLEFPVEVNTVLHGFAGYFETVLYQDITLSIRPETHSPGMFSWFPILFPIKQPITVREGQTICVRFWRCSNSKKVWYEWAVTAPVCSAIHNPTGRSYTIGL
Chain of human PRMT5/MEP50 (Q9BQA1 whole entry partner): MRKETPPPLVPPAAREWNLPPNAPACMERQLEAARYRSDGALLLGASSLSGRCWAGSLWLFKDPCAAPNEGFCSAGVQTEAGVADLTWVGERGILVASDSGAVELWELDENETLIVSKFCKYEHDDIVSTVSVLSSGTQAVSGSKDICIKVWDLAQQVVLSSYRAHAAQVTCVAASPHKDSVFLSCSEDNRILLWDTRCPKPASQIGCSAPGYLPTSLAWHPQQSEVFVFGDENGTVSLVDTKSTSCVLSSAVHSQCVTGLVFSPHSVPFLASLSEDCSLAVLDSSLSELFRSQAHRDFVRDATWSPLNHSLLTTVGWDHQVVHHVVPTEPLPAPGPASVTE
The IC50 is the concentration needed to halve the response being measured. `CN1CCN(c2cc(C(=O)NCC(O)CN3CCc4[nH]c5ccccc5c4C3)cc(NC3CCC3)n2)CC1` (stereo not drawn) [Example 2, 2-(cyclobutylamino)-N-(2-hydroxy-3-{1H,2H,3H,4H,5H-pyrido[4,3-b]indol-2-yl}propyl)-6-(4-methylpiperazin-1-yl)pyridine-4-carboxamide] displayed a 50% inhibitory concentration (IC50) of 771 nM.
The compound `CC(=O)N1CCC(Nc2cc(C(=O)NCC(O)CN3CCc4[nH]c5ccccc5c4C3)ncn2)CC1` (stereo not drawn) [Example 4, 6-[(1-acetylpiperidin-4-yl)amino]-N-(2-hydroxy-3-{1H,2H,3H,4H,5H-pyrido[4,3-b]indol-2-yl}propyl)pyrimidine-4-carboxamide] gave an IC50 of 542 nM.
On to `CN1CCN(c2nc(NC3CCC3)cc(C(=O)NCC(O)CN3CCc4c(c5ccccc5n4C)C3)n2)CC1` (stereo not drawn) [Example 6, 6-(cyclobutylamino)-N-(2-hydroxy-3-{5-methyl-1H,2H,3H,4H,5H-pyrido[4,3-b]indol-2-yl}propyl)-2-(4-methylpiperazin-1-yl)pyrimidine-4-carboxamide], for which the midpoint of inhibition, the IC50, lay at 108 nM.
On to `CN1CCN(c2cc(C(=O)NCC(O)CN3CCc4c(c5ccccc5n4C)C3)cc(NC3CCC3)n2)CC1` (stereo not drawn) [Example 7, 2-(cyclobutylamino)-N-(2-hydroxy-3-{5-methyl-1H,2H,3H,4H,5H-pyrido[4,3-b]indol-2-yl}propyl)-6-(4-methylpiperazin-1-yl)pyridine-4-carboxamide], for which the IC50 was found to be 322 nM.
The value for `CN1CCN(c2nc(NC3CCC3)cc(C(=O)NCC(O)CN3CCc4c([nH]c5ccccc45)C3)n2)CC1` (stereo not drawn) [Example 9, 6-(cyclobutylamino)-N-(2-hydroxy-3-{1H,2H,3H,4H,9H-pyrido[3,4-b]indol-2-yl}propyl)-2-(4-methylpiperazin-1-yl)pyrimidine-4-carboxamide] was 148 nM; that for `CN1CCN(c2cc(C(=O)NCC(O)CN3CCc4c([nH]c5ccccc45)C3)cc(NC3CCC3)n2)CC1` (stereo not drawn) [Example 10, 2-(cyclobutylamino)-N-(2-hydroxy-3-{1H,2H,3H,4H,9H-pyrido[3,4-b]indol-2-yl}propyl)-6-(4-methylpiperazin-1-yl)pyridine-4-carboxamide] was 67 nM.
The value for `O=C(NCC(O)CN1CCc2c([nH]c3ccccc23)C1)c1cc(NC2CCC2)ncn1` (stereo not drawn) [Example 11, 6-(Cyclobutylamino)-N-(2-hydroxy-3-{1H,2H,3H,4H,9H-pyrido[3,4-b]indol-2-yl}propyl)pyrimidine-4-carboxamide] was 459 nM.
The value for `CC(=O)N1CCC(Nc2cc(C(=O)NCC(O)CN3CCc4c([nH]c5ccccc45)C3)ncn2)CC1` (stereo not drawn) [Example 12, 6-[(1-acetylpiperidin-4-yl)amino]-N-(2-hydroxy-3-{1H,2H,3H,4H,9H-pyrido[3,4-b]indol-2-yl}propyl)pyrimidine-4-carboxamide] was 86 nM; that for `O=C(NCC(O)CN1CCc2c([nH]c3ccccc23)C1)c1ccc(C(=O)N2CCOCC2)cc1` (stereo not drawn) [Example 13, N-(2-hydroxy-3-{1H,2H,3H,4H,9H-pyrido[3,4-b]indol-2-yl}propyl)-4-[(morpholin-4-yl)carbonyl]benzamide] was 2040 nM.
The compound `O=C(NCC(O)CN1CCc2c([nH]c3ccccc23)C1)c1ccc(C(=O)N2C3CCC2COC3)cc1` (stereo not drawn) [Example 14, N-(2-hydroxy-3-{1H,2H,3H,4H,9H-pyrido[3,4-b]indol-2-yl}propyl)-4-({3-oxa-8-azabicyclo[3.2.1]octan-8-yl}carbonyl)benzamide] came in with a concentration for half-maximal inhibition (IC50) of 1630 nM.
For `CN1CCN(c2nc(NC3CCC3)cc(C(=O)NCC(O)CN3CCc4c(n(C)c5ccccc45)C3)n2)CC1` (stereo not drawn) [Example 15, 6-(cyclobutylamino)-N-(2-hydroxy-3-{9-methyl-1H,2H,3H,4H,9H-pyrido[3,4-b]indol-2-yl}propyl)-2-(4-methylpiperazin-1-yl)pyrimidine-4-carboxamide] the value was 477 nM.
For `CN1CCN(c2cc(C(=O)NCC(O)CN3CCc4c(n(C)c5ccccc45)C3)cc(NC3CCC3)n2)CC1` (stereo not drawn) [Example 16, 2-(cyclobutylamino)-N-(2-hydroxy-3-{9-methyl-1H,2H,3H,4H,9H-pyrido[3,4-b]indol-2-yl}propyl)-6-(4-methylpiperazin-1-yl)pyridine-4-carboxamide] the value was 286 nM.
`Cn1c2c(c3ccccc31)CCN(CC(O)CNC(=O)c1cc(NC3CCC3)ncn1)C2` (stereo not drawn) [Example 17, 6-(cyclobutylamino)-N-(2-hydroxy-3-{9-methyl-1H,2H,3H,4H,9H-pyrido[3,4-b]indol-2-yl}propyl)pyrimidine-4-carboxamide] had an IC50 of 8040 nM.
For `CC(=O)N1CCC(Nc2cc(C(=O)NCC(O)CN3CCc4c(n(C)c5ccccc45)C3)ncn2)CC1` (stereo not drawn) [Example 18, 6-[(1-acetylpiperidin-4-yl)amino]-N-(2-hydroxy-3-{9-methyl-1H,2H,3H,4H,9H-pyrido[3,4-b]indol-2-yl}propyl)pyrimidine-4-carboxamide] the value was 2050 nM; for `Cn1c2c(c3ccccc31)CCN(CC(O)CNC(=O)c1ccc(C(=O)N3C4CCC3COC4)cc1)C2` (stereo not drawn) [Example 19, N-(2-hydroxy-3-{9-methyl-1H,2H,3H,4H,9H-pyrido[3,4-b]indol-2-yl}propyl)-4-({3-oxa-8-azabicyclo[3.2.1]octan-8-yl}carbonyl)benzamide], 26900 nM.
Regarding `O=C(OCC(O)CN1CCc2c([nH]c3ccccc23)C1)N1CCC(c2ccccc2)C1` (stereo not drawn) [Example 20, 2-hydroxy-3-(1,3,4,9-tetrahydro-2H-pyrido[3,4-b]indol-2-yl)propyl 3-phenylpyrrolidine-1-carboxylate], half-maximal inhibition (IC50) was put at 10500 nM.
For `O=C(OCC(O)CN1CCc2c([nH]c3ccccc23)C1)N1CCc2ccccc2C1` (stereo not drawn) [Example 21, 2-Hydroxy-3-(1,3,4,9-tetrahydro-2H-pyrido[3,4-b]indol-2-yl)propyl 3,4-dihydroisoquinoline-2(1H)-carboxylate] the value was 6190 nM; for `O=C(NCC(O)CN1CCc2c([nH]c3ccccc23)C1)N1CCc2ccccc2C1` (stereo not drawn) [Example 22, N-(2-hydroxy-3-(1,3,4,9-tetrahydro-2H-pyrido[3,4-b]indol-2-yl)propyl)-3,4-dihydroisoquinoline-2(1H)-carboxamide], 21000 nM; for `O=C(NCC(O)CN1CCc2c([nH]c3ccccc23)C1)N1CCC(c2ccccc2)C1` (stereo not drawn) [Example 23, N-(2-hydroxy-3-(1,3,4,9-tetrahydro-2H-pyrido[3,4-b]indol-2-yl)propyl)-3-phenyl pyrrolidine-1-carboxamide], 75700 nM.
For `O=C(NCC(O)CN1CCc2c([nH]c3ccccc23)C1)N1CCCC(c2ccccc2)C1` (stereo not drawn) [Example 24, N-(2-hydroxy-3-(1,3,4,9-tetrahydro-2H-pyrido[3,4-b]indol-2-yl)propyl)-3-phenylpiperidine-1-carboxamide] the value was 53700 nM; for `CC(=O)N1CCC(Nc2cc(C(=O)NCCCN3CCc4c([nH]c5ccccc45)C3)ncn2)CC1` [Example 25, 6-((1-acetylpiperidin-4-yl)amino)-N-(3-(1,3,4,9-tetrahydro-2H-pyrido[3,4-b]indol-2-yl)propyl)pyrimidine-4-carboxamide], 99 nM.
For `CC(=O)N1CCC(Nc2cc(C(=O)NC[C@H](O)CN3CCc4c([nH]c5ccccc45)C3)ncn2)CC1` [Example 26, (S)-6-((1-acetylpiperidin-4-yl)amino)-N-(2-hydroxy-3-(1,3,4,9-tetrahydro-2H-pyrido [3,4-b]indol-2-yl)propyl)pyrimidine-4-carboxamide] the value was 10 nM.
On to `CC(=O)N1CCC(Nc2cc(C(=O)NC[C@@H](O)CN3CCc4c([nH]c5ccccc45)C3)ncn2)CC1` [Example 27, (R)-6-((1-acetylpiperidin-4-yl)amino)-N-(2-hydroxy-3-(1,3,4,9-tetrahydro-2H-pyrido [3,4-b]indol-2-yl)propyl)pyrimidine-4-carboxamide], for which the concentration for half-maximal inhibition (IC50) turned out to be 158 nM. Against the preceding compound, the IC50 is about 16-fold higher.
For `CC(=O)N1CCC(Nc2cc(C(=O)NCC(O)CN3CCn4c(cc5ccccc54)C3)ncn2)CC1` (stereo not drawn) [Example 28, 6-((1-acetylpiperidin-4-yl)amino)-N-(3-(3,4-dihydropyrazino[1,2-a]indol-2(1H)-yl)-2-hydroxypropyl)pyrimidine-4-carboxamide] the value was 45 nM.
